# Measurements taken from patent US20220281848A1, “PYRAZOLE-SUBSTITUTED PYRROLIDINONES AS HERBICIDES” (FMC Corporation, priority 2019, published 2022).
# Test system: plants
# Experiment: Test D post-emergence, other plants of Tables D2 and D4
# Type: in vivo
# Procedure, shortened: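 Seeds treated with herbicide safener; sown in soil; glasshouse, 16 h light, 65% humidity. Sprayed day 1 (pre) or ~day 12 (post). Spray in 0.2% v/v adjuvant. Scored 0–100 damage: 20 DAA pre, 15 d post.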
# [1] = "Cereals" Postemergent, Rates 130, evaluated after 15 d
# [2] = "Cereals" Postemergent, Rates 250, evaluated after 15 d
# [3] = "Cereals" Postemergent, Rates 500, evaluated after 15 d
# [4] = post-emergence, rate 130, evaluated after 15 d
# [5] = post-emergence, rate 250, evaluated after 15 d
# [6] = post-emergence, rate 500, evaluated after 15 d
structure (smiles),measurement,setting,value
CN1CC(c2cc(C(F)(F)F)n(C)n2)C(C(=O)Nc2cccc(F)c2C(F)(F)F)C1=O (racemic) [Compound 19],ALOMY damage rating (100=total damage to plant; 0=no damage to plant),[1],0
same,ALOMY damage rating (100=total damage to plant; 0=no damage to plant),[2],0
same,ALOMY damage rating (100=total damage to plant; 0=no damage to plant),[3],30
same,AVEFA damage rating (100=total damage to plant; 0=no damage to plant),[1],0
same,AVEFA damage rating (100=total damage to plant; 0=no damage to plant),[2],10
same,AVEFA damage rating (100=total damage to plant; 0=no damage to plant),[3],40
same,BEAVA damage rating (100=total damage to plant; 0=no damage to plant),[1],0
same,BEAVA damage rating (100=total damage to plant; 0=no damage to plant),[2],10
same,BEAVA damage rating (100=total damage to plant; 0=no damage to plant),[3],10
same,BROTE damage rating (100=total damage to plant; 0=no damage to plant),[1],0
same,BROTE damage rating (100=total damage to plant; 0=no damage to plant),[2],0
same,BROTE damage rating (100=total damage to plant; 0=no damage to plant),[3],0
same,BRSNN damage rating (100=total damage to plant; 0=no damage to plant),[1],0
same,BRSNN damage rating (100=total damage to plant; 0=no damage to plant),[2],20
same,BRSNN damage rating (100=total damage to plant; 0=no damage to plant),[3],10
same,CHEAL damage rating (100=total damage to plant; 0=no damage to plant),[1],0
same,CHEAL damage rating (100=total damage to plant; 0=no damage to plant),[2],0
same,CHEAL damage rating (100=total damage to plant; 0=no damage to plant),[3],40
same,GALAP damage rating (100=total damage to plant; 0=no damage to plant),[1],0
same,GALAP damage rating (100=total damage to plant; 0=no damage to plant),[2],0
same,GALAP damage rating (100=total damage to plant; 0=no damage to plant),[3],20
same,HORVW damage rating (100=total damage to plant; 0=no damage to plant),[1],0
same,HORVW damage rating (100=total damage to plant; 0=no damage to plant),[2],0
same,HORVW damage rating (100=total damage to plant; 0=no damage to plant),[3],40
same,KCHSC damage rating (100=total damage to plant; 0=no damage to plant),[1],0
same,KCHSC damage rating (100=total damage to plant; 0=no damage to plant),[2],0
same,KCHSC damage rating (100=total damage to plant; 0=no damage to plant),[3],0
same,LOLPE damage rating (100=total damage to plant; 0=no damage to plant),[1],0
same,LOLPE damage rating (100=total damage to plant; 0=no damage to plant),[2],0
same,LOLPE damage rating (100=total damage to plant; 0=no damage to plant),[3],10
same,POAAN damage rating (100=total damage to plant; 0=no damage to plant),[1],0
same,POAAN damage rating (100=total damage to plant; 0=no damage to plant),[2],30
same,POAAN damage rating (100=total damage to plant; 0=no damage to plant),[3],40
same,POLCO damage rating (100=total damage to plant; 0=no damage to plant),[1],0
same,POLCO damage rating (100=total damage to plant; 0=no damage to plant),[2],0
same,POLCO damage rating (100=total damage to plant; 0=no damage to plant),[3],0
same,SINAR damage rating (100=total damage to plant; 0=no damage to plant),"SINAR, ""Cereals"" Postemergent, Rates 500, evaluated after 15 d",20
same,STEME damage rating (100=total damage to plant; 0=no damage to plant),[1],0
same,STEME damage rating (100=total damage to plant; 0=no damage to plant),[2],0
same,STEME damage rating (100=total damage to plant; 0=no damage to plant),[3],0
same,VERPE damage rating (100=total damage to plant; 0=no damage to plant),[1],0
same,VERPE damage rating (100=total damage to plant; 0=no damage to plant),[2],0
same,VERPE damage rating (100=total damage to plant; 0=no damage to plant),[3],10
same,"damage to plant (100=total damage to plant; 0=no damage to plant), ABUTH",[4],0
same,"damage to plant (100=total damage to plant; 0=no damage to plant), ABUTH",[5],10
same,"damage to plant (100=total damage to plant; 0=no damage to plant), ABUTH",[6],20
same,"damage to plant (100=total damage to plant; 0=no damage to plant), AMARE",[4],0
same,"damage to plant (100=total damage to plant; 0=no damage to plant), AMARE",[5],10
same,"damage to plant (100=total damage to plant; 0=no damage to plant), AMARE",[6],20
same,"damage to plant (100=total damage to plant; 0=no damage to plant), BIDPI","post-emergence, BIDPI, rate 130, evaluated after 15 d",0
